# Read-outs that look alike come from different tables or passages of the source.
# Legend:
# Format in all cases: in vivo
# [1] = test system: apple scab pathogen (Venturia inaequalis); assay: Apple scab control test (100 ppm spray on apple seedlings); settings: 336 h; apple seedlings (Ralls Janet), emulsion sprayed at 100 ppm, inoculated with Venturia inaequalis, 2 weeks
# Experimental: Ralls Janet, leaf stage: 3 to 4) cultivated in unglazed pots and allowed to air-dry at room temperature. Subsequently, the seedlings were inoculated with conidiospores of apple scab pathogen (Venturia inaequalis) followed by holding for 2 weeks indoors at 20° C. and high humidity using a 12 hour light/dark cycle. The appearance of lesions on the leaves was compared with untreated seedlings to determine control effects.
# [2] = test system: cucumber gray mold pathogen (Botrytis cinerea); assay: Cucumber gray mold control test; settings: 96 h, cucumber seedlings (Sagami Hanjiro), emulsion sprayed at 100 ppm, 4 days
# Experimental: Sagami Hanjiro, leaf stage: cotyledon) cultivated in unglazed pots, and allowed to air-dry at room temperature. Subsequently, the seedlings were drip-inoculated with conidiospore suspensions of cucumber gray mold pathogen (Botrytis cinerea) followed by holding for 4 days in a dark room at 20° C. and high humidity. The appearance of lesions on the leaves was compared with untreated seedlings to determine control effects.
# [3] = test system: rice blast pathogen (Magnaporthe grisea); settings: rice seedlings (Koshihikari), 400 ppm dropped onto water surface, inoculated two days later
# [4] = test system: rice blast pathogen (Magnaporthe grisea); settings: rice seedlings (Koshihikari), 400 ppm dropped onto water surface, inoculated 14 days later
Structure (SMILES),pest or weed control at 100 ppm [1] [%],pest or weed control at 100 ppm [2] [%],control effects [3],control effects [4]
"CC(=O)C(C)(C)c1c(F)cccc1Oc1cnc2c(F)cccc2n1 [Compound 1-10, 3-[2-fluoro-6-(5-fluoro-quinoxalin-2-yloxy)-phenyl]-3-methyl-butan-2-one]",≥ 75,≥ 75,–,–
CC(C)OC(=O)C(C)(C)c1ccccc1Oc1cnc2c(F)c(F)ccc2n1 [Compound 1-24],–,–,B (Control value of 40% to less than 60%),–
"COC(C)(C)c1ncccc1Oc1nc2ccc(F)c(F)c2nc1C [Compound 1-35, 5,6-difluoro-2-[2-(1-methoxy-1-methyl-ethyl)-pyridin-3-yloxy]-3-methyl-quinoxaline]",≥ 75,≥ 75,–,–
"Cc1nc2c(F)cccc2cc1Oc1cccnc1C(C)(C)O [a-7, 2-[(8-fluoro-2-methylquinolin-3-yloxy)pyridine-2-yl]propan-2-ol]",≥ 75,≥ 75,–,–
CC(C)(O)c1ncccc1Oc1cnc2c(F)cccc2c1 [a-8],–,–,–,B (Control value of 40% to less than 60%)
"CC(=O)c1ncccc1Oc1cc2cccc(F)c2nc1C [a-9, 1-[3-(2-methyl-8-fluoroquinolin-3-yloxy)-pyridin-2-yl]-ethanone]",≥ 75,–,–,–
"CC(C)(C#N)c1ncccc1Oc1cnc2c(F)cccc2c1 [a-11, 2-[3-(8-fluoro-quinolin-3-yloxy)-pyridin-2-yl]-2-methylpropionitrile]",≥ 75,≥ 75,–,–
"CCOC(=O)C(C)(C)c1ncccc1Oc1cnc2c(F)cccc2c1 [a-12, 2-[3-(8-fluoro-quinolin-3-yloxy)-pyridin-2-yl]-2-methylpropionic acid ethyl ester]",≥ 75,≥ 75,–,–
"CC(=O)C(C)(C)c1ncccc1Oc1cnc2c(F)cccc2c1 [a-15, 3-[3-(8-fluoro-quinolin-3-yloxy)-pyridin-2-yl]-3-methyl-butan-2-one]",≥ 75,≥ 75,–,–
"COC(C)(C)c1ncccc1Oc1cc2cccc(F)c2nc1C [a-16, 3-[2-(2-methoxy-2-propyl)pyridin-3-yloxy]-8-fluoro-2-methylquinoline]",≥ 75,≥ 75,–,–
"CC(C)(C(=O)O)c1ncccc1Oc1cnc2c(F)cccc2c1 [a-19, 2-[3-(8-fluoro-quinolin-3-yloxy)-pyridin-2-yl]-2-methylpropionic acid]",≥ 75,–,–,–
"CC(C)(C=O)c1ncccc1Oc1cnc2c(F)cccc2c1 [a-21, 2-[3-(8-fluoro-quinolin-3-yloxy)-pyridin-2-yl]-2-methyl-propioaldehyde]",≥ 75,≥ 75,–,–
"CCNC(=O)C(C)(C)c1ncccc1Oc1cnc2c(F)cccc2c1 [a-55, N-ethyl-2-[3-(8-fluoro-quinolin-3-yloxy)-pyridin-2-yl]-isobutylamide]",≥ 75,–,–,–
"CCOC(C)(C)c1ncccc1Oc1cc2cccc(F)c2nc1C [a-56, 3-[2-(2-ethoxy-2-propyl)pyridin-3-yloxy]-8-fluoro-2-methylquinoline]",≥ 75,≥ 75,–,–

# From patent publication US9060517B2, “Nitrogenated heterocyclic compound and agricultural or horticultural fungicide” (Nippon Soda Co., Ltd., priority 2011, dated 2015)
